Results published in patent US20060161221A1, “Activation of calcium-mediated cell functions in cells and tissues, including aggregation of human platelets, by nanosecond pulsed electric fields” (priority 2004, published 2006).
Entries after “also recorded” stand apart in the source; their conditions may differ.

How the values were obtained:
Type in all cases: cell-based, human
HL-60 cells [1] = assay: Fluorometric analysis (fura-2) of intracellular free calcium [Ca2+]i in HL-60 cells; details: for change in [Ca2+]i: 0.1 μM
Protocol: Cell culture-Non-transformed HL-60 cells were used for this study and were obtained from American Type Culture Collection (ATCC, Rockville, Md.). […] 2 mM CaCl2 was added to this buffer when loading cells with fluorescent indicators unless otherwise stated. In some experiments extracellular calcium was omitted by washing the cells several times in the same physiological buffer without added calcium. […] Post pulse, the cell suspension was removed from the pulsing cuvette and assayed. Fluorometric Analysis of Internal Calcium Response-To analyze the response of a greater number of cells, the fluorescent indicator fura-2 (Molecular Probes, Eugene, Oreg.) was used with a fluorometer. HL-60 cells were incubated with fura-2/AM (2 μM) in the physiological buffer described above containing 2 mM calcium for 45 minutes at 37° C. The cells were then washed and resuspended in calcium-free or calcium-containing buffer at a concentration of 7.7×10^6 cells/ml. […] Pulser® cuvettes could not be used to perform calcium measurements in the fluorometer because of the aluminum plates, which act to block either the excitation light or the emission light depending on the placement of the cuvette in the fluorometer. Therefore, the cells were first placed in the fluorometer cuvette, to obtain a baseline reading, cells were then removed from the fluorometer cuvette with a Pasteur pipette and added to the Pulser® cuvette.

Jurkat cells = assay: Caspase activation (z-VAD-FITC, flow cytometry) in nsPEF-exposed, BAPTA-loaded Jurkat cells; details: energy density ~1.7 J/cc
Protocol: FIG. 2 describes the effect of intracellular calcium chelation by BAPTA on caspase activation in human Jurkat cells. Jurkat cells were incubated with BAPTA-AM ([…]) in Hanks Balanced salt solution (HBSS) with calcium for 30 minutes and washed in HBSS with calcium. The BAPTA loaded cells were exposed to nsPEF as indicated. The electric fields were adjusted to provide a similar energy density (˜1.7 J/cc) under all conditions. After exposure to nsPEF, the cells were incubated with a cell permeable, irreversible inhibitor of active caspases, z-VAD-FITC for 20 minutes before analysis by flow cytometry (Beebe et al., (2003) FASEB J 17, 1493-1495). The values for caspase activity are expressed as the geometric mean z-VAD-FITC fluorescence determined in 15,000 individual cells. […]
(§1) Determination of caspase activation in vivo—Caspase activity was determined in vivo using a fluorescent-labeled, irreversible caspase inhibitor, VAD-fmk-FITC (Val-Ala-Asp-fluoromethylketone labeled with fluoroisothiocyanate) that is specific for the active site of the enzyme (see Beebe et al., 2003). Briefly, cells were exposed to nsPEF, incubated in the presence of the fluorescent caspase inhibitor for 20 minutes, washed to remove background fluorescence and subjected to flow cytometry. Values are expressed as the geometric mean FITC fluorescence. […]

HL-60 cells [2] = assay: Caspase activation (z-VAD-FITC, flow cytometry) in nsPEF-exposed, BAPTA-loaded HL-60 cells; details: pulses at 10, 60 and 300 ns, equalized energy density
Protocol: Experiments with HL-60 cells in the presence and absence of BAPTA cells were carried out as described for Jurkat cells in FIG. 2 (n=4).
Cell culture—Non-transformed HL-60 and Jurkat cells were obtained from and cultured as recommended by American Type Culture Collection (ATCC, Rockville, Md.) as previously described (Beebe, S. J., et al. (2002). IEEE Trans. Plasma Sci. 30:1 Part 2, 286-292; Beebe, S. J., et al. (2003). FASEB J. 17, 1493-1495). Cells were removed from log phase growth and suspended in Hanks Balanced Salt Solution (HBSS) in the presence or absence of Ca^2+ and Mg^2+. When calcium was omitted, cells were washed several times in buffer without added calcium. In other experiments, the calcium chelator BAPTA was added to chelate intracellular calcium. […]
as §1

HL-60 cells [3] = assay: Fura-2 measurement of agonist-induced calcium mobilization with and without BAPTA, media without calcium
Text: Cell culture—Non-transformed HL-60 and Jurkat cells were obtained from and cultured as recommended by American Type Culture Collection (ATCC, Rockville, Md.) as previously described (Beebe, S. J., et al. (2002). IEEE Trans. Plasma Sci. 30:1 Part 2, 286-292; Beebe, S. J., et al. (2003). FASEB J. 17, 1493-1495). Cells were removed from log phase growth and suspended in Hanks Balanced Salt Solution (HBSS) in the presence or absence of Ca^2+ and Mg^2+. When calcium was omitted, cells were washed several times in buffer without added calcium. In other experiments, the calcium chelator BAPTA was added to chelate intracellular calcium. Cells were loaded with BAPTA-AM and washed in HBSS before the addition of agonists.
To be certain that BAPTA was able to chelate all intracellular calcium, two agents that mobilize calcium by two different mechanisms were used and the calcium concentration in the cell was directly measured using the fluorescent calcium indicator fura-2. Cells were loaded with Fura2 and BAPTA and tested in media without calcium. The first agonist tested was the purinergic agonist ATP, which leads to the release of intracellular calcium through a phospholipase C— and IP3-mediated mechanism through the IP3 receptor in the endoplasmic reticulum (Berridge, M. J. et al. (1998) Nature 395, 645-648). This is followed by an influx of calcium through store-operated calcium channels in the plasma membrane. […] The second agonist tested was cyclopiazonic acid (CPA), which causes increases in calcium by inhibiting the calcium-ATPase in the endoplasmic reticulum. This pump replenishes the intracellular calcium stores after actions by calcium-mobilizing agents. […] Thus, BAPTA inhibited rapid and transient as well as slow and sustained calcium mobilization by agents that acted on a plasma membrane receptor and an endoplasmic reticulum calcium pump.

[4] = cells loaded with Fura2 and BAPTA

## O=c1ccn([C@@H]2O[C@H](COP(=O)(O)OP(=O)(O)OP(=O)(O)O)[C@@H](O)[C@H]2O)c(=O)[nH]1 [UTP]
HL-60 cells [1]; 10 μM UTP in low calcium-containing buffer, then 1.0 mM calcium added
  [Ca2+]i on addition of 1.0 mM calcium to treated cells (capacitative calcium entry): rapid rise
HL-60 cells [1]; 10 μM, extracellular calcium deficient, vs UTP added before a pulse
  reduction of peak [Ca2+]i effect when added after one 60 ns 15 kV/cm pulse: approximately 60%
HL-60 cells [1]; 10 μM, extracellular calcium present
  increase in [Ca2+]i: approximately 300 nM
HL-60 cells [1]; 100 μM, extracellular calcium present
  effect on [Ca2+]i compared with 10 μM: did not produce any larger effect
HL-60 cells [1]; 0.1 M (so in the source), extracellular calcium present
  effect on [Ca2+]i as % of that seen with 10 μM UTP: approximately 20%
HL-60 cells [1]; absence of extracellular calcium, transient
  increase in [Ca2+]i: approximately 50 nM
HL-60 cells [1]; extracellular calcium deficient
  [Ca2+]i increase by one 15 kV/cm pulse after the agonist, as % of pulse before agonist addition: approximately 25%
HL-60 cells [1]; extracellular calcium present
  reduction of [Ca2+]i increase by one 15 kV/cm pulse given after the agonist: approximately 65%
HL-60 cells [1]; extracellular calcium present, vs UTP by itself
  reduction of [Ca2+]i effect when added after one 15 kV/cm pulse: approximately 60%

## C/C=C(/C)C(=O)O[C@H]1C(C)=C2[C@H]([C@@H]1OC(=O)CCCCCCC)[C@@](C)(OC(C)=O)C[C@H](OC(=O)CCC)[C@@]1(O)[C@H]2OC(=O)[C@@]1(C)O [thapsigargin]
HL-60 cells [1]; 0.1 μM at approximately 50 seconds, 1 mM extracellular calcium
  [Ca2+]i response when added after one 15 kV/cm pulse: did not increase
HL-60 cells [1]; extracellular calcium absent
  change in [Ca2+]i: smaller and more transient increase
HL-60 cells [1]; extracellular calcium present
  change in [Ca2+]i: prolonged increase; also recorded: gradual and sustained increase
  reduction of [Ca2+]i increase by one 15 kV/cm pulse given after the agonist: approximately 85%

## COc1ccc([C@@H]2Sc3ccccc3N(CCN(C)C)C(=O)[C@@H]2OC(C)=O)cc1 [diltiazem]
HL-60 cells [1]; HL-60 cells
  effect on nsPEF-induced increases in [Ca2+]i: no effect

## O=C(O)CN(CC(=O)O)c1ccccc1OCCOc1ccccc1N(CC(=O)O)CC(=O)O [BAPTA]
Jurkat cells; pulses at 10 and 60 ns
  effect on nsPEF-induced caspase activation: no significant effect
Jurkat cells; pulses with 300 ns durations
  reduction of nsPEF-induced caspase activity: about 25%
HL-60 cells [2]
  effect on nsPEF-induced caspase activity: did not significantly affect
HL-60 cells [3]; [4]
  effect on ATP-induced calcium mobilization: completely inhibited
  effect on CPA-mediated calcium mobilization: completely inhibited

## Nc1ncnc2c1ncn2[C@@H]1O[C@H](COP(=O)(O)OP(=O)(O)OP(=O)(O)O)[C@@H](O)[C@H]1O [ATP]
HL-60 cells [3]; absence of BAPTA
  calcium mobilization (fura-2): rapid and transient increase
